Laboratory results reported in patent US20030175769A1, “Reagents for improved PCR” (priority 2001, published 2003).

Key:
[1] = tested on: PCR amplification mixture; experiment: Hot start effect when added to a PCR amplification mixture; assay type: biochemical
[2] = tested on: plasmid containing the complete DPD cDNA; experiment: Real time PCR signal intensity, FRET-HybProbe formate; assay type: biochemical; settings: 0,1 g/μl compound
Description: For this experiment, the primer mix according to example 3 was used. Various amounts of plasmid containing the complete DPD cDNA ranging from 0,4 to 40 fg were amplified with the primer mix by means of PCR under the conditions of example 3 in the presence or absence of […] compound III according to example 2.
For Real Time PCR detection, FRET-hybridization probes from the LightCycler Dihydropyrimidin-Dehydrogenase (DPD) mRNA quantification kit (Roche Molecular Biochemicals, cat. No. 3136957) were used in concentrations according to the manufacturer's instructions.

**Q.** With `O=C(O)C1=C/C(=C(/c2ccc(O)c(C(=O)O)c2)c2cc(Cc3ccc(O)c(C(=O)O)c3)c(O)c(C(=O)O)c2)C=CC1=O` [Compound I] as the compound, how does the hot start effect [1] read?
**A.** extensive hot start effect

**Q.** And the “specific amplification signal (FIG. 3a)” value ([2]; 0,4 fg template DNA)?
**A.** can only be obtained in presence of the additive

**Q.** What about the “specific signaling, cycle number of detection (FIG. 3b,c)” value ([2]; higher template concentrations (4 fg, 40 fg)) of the same compound?
**A.** detected at earlier cycle numbers
